The source of these data is ChEMBL document CHEMBL1201862, “PubChem BioAssay data set” (2004).

Some test systems named below: DU-145; IGROV-1; SNB-75; SF-539; ACHN; 786-0; CCRF-CEM; OVCAR-5; CAKI-1; NCI-H522; Malme-3M; SK-MEL-28; LXFL 529; NCI-H23; Hs-578T; SK-OV-3; M14; K562; MDA-N; HOP-62.
Assay in all cases: NCI tumour cell line growth inhibition, 48 h

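Test compounds were applied to cells in 96-well plates for 48 hours at 5 doses. Here, GI50 denotes the concentration required for 50% inhibition of growth.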 The source made the active and inactive calls. Cut-off read from the data, not from the text of the source: active = GI50 up to about 1.1 µM and inactive = higher. A value given as a limit tells only on which side of the number the result lay.

On to `O=[N+]([O-])c1ccc(C2=Nn3c(nnc3-c3ccc(Cl)cc3)SC2)o1`, for which the GI50 in the assay with DU-145 was 19.2 µM (inactive); in the assay with IGROV-1, 6 µM (inactive); in the assay on SNB-75, 11.5 µM (inactive); with SF-539, 8.81 µM (inactive); in the assay with ACHN, 13.9 µM (inactive); in the assay with 786-0, 10 µM (inactive). For the same compound, the GI50 in the assay on CCRF-CEM was 2.65 µM (inactive); in the assay with OVCAR-5, 18.3 µM (inactive); in the assay with CAKI-1, 9.2 µM (inactive); with NCI-H522, 0.923 µM (active); in the assay on Malme-3M it was 6.46 µM (inactive); in the assay on SK-MEL-28 it was 12.2 µM (inactive). Moreover, the GI50 is 4.67 µM (inactive) in the assay with LXFL 529; 7.94 µM (inactive) with NCI-H23; 5.83 µM (inactive) in the assay on Hs-578T; 19.3 µM (inactive) in the assay with SK-OV-3; 5.46 µM (inactive) in the assay on M14; 2.16 µM (inactive) in the assay on K562. In addition, the GI50 in the assay on MDA-N was 6.17 µM (inactive); with HOP-62 it was 9.12 µM (inactive).

As for `CN(C)C(=S)/N=c1\ssc(=S)n1Cc1ccccc1`, the GI50 with DU-145 was 1.79 µM (inactive); in the assay with IGROV-1, 0.632 µM (active); in the assay on SNB-75 it was 0.203 µM (active); in the assay on SF-539, 0.309 µM (active); in the assay with ACHN, 0.807 µM (active); in the assay with 786-0 it was 0.361 µM (active). For the same compound, the GI50 in the assay with CCRF-CEM is 0.411 µM (active); in the assay with OVCAR-5, 20 µM (inactive); in the assay on CAKI-1, 0.676 µM (active); with NCI-H522, 0.063 µM (active); in the assay with Malme-3M, 0.243 µM (active); in the assay on SK-MEL-28 it was 0.661 µM (active). In addition, the GI50 in the assay on LXFL 529 is 0.459 µM (active); in the assay with NCI-H23 it was 0.465 µM (active); in the assay with Hs-578T, 0.193 µM (active); in the assay with SK-OV-3, 0.434 µM (active); in the assay on M14 it was 0.301 µM (active); in the assay on K562, 0.206 µM (active). For the same compound, the values for the GI50 in the assay on MDA-N and with HOP-62 were 0.0348 µM (active) and 0.546 µM (active), respectively.

On to `C[Si]1(C)C(c2ccccc2)=CC2C(c3ccccc3)(c3ccccc3)OC21c1ccccc1` (stereo unspecified), for which the GI50 in the assay on IGROV-1, in the assay on SNB-75, with SF-539, in the assay with ACHN, with 786-0 and in the assay on CCRF-CEM was > 100 µM (inactive) each time. Besides, the GI50 with OVCAR-5 was > 100 µM (inactive); in the assay with CAKI-1, > 100 µM (inactive); with NCI-H522 it was > 100 µM (inactive); in the assay on Malme-3M it was 33.6 µM (inactive); in the assay on SK-MEL-28, > 100 µM (inactive); in the assay with LXFL 529 it was > 100 µM (inactive). The GI50 is > 100 µM (inactive) with NCI-H23; > 100 µM (inactive) in the assay with SK-OV-3; 43.8 µM (inactive) in the assay on M14; 87.7 µM (inactive) in the assay on K562; > 100 µM (inactive) with HOP-62.

In the case of `COc1ccc2nc3ccccc3c(NCCCCCCN(CCCl)CCCl)c2c1`, the GI50 in the assay with DU-145 is 0.0817 µM (active); in the assay on IGROV-1, 0.148 µM (active); with SNB-75 it was 0.108 µM (active); in the assay on SF-539, 0.215 µM (active); in the assay with ACHN it was 0.0184 µM (active); with 786-0, 0.0161 µM (active). Besides, the GI50 in the assay on CCRF-CEM was 0.0107 µM (active); with OVCAR-5, 0.45 µM (active); in the assay with CAKI-1, 0.0353 µM (active); in the assay on NCI-H522, 0.0338 µM (active); with Malme-3M, 0.537 µM (active); with SK-MEL-28 it was 1.06 µM (active). In addition, the GI50 was 0.107 µM (active) in the assay with LXFL 529; 0.15 µM (active) with NCI-H23; 0.226 µM (active) in the assay on SK-OV-3; 0.0946 µM (active) in the assay on M14; 0.019 µM (active) with K562; 0.057 µM (active) in the assay with MDA-N. Besides, the GI50 with HOP-62 was 0.212 µM (active).
